Laboratory results from ChEMBL document CHEMBL4507299, “Data for DCP probe PF-04554878” (2021).

Key:
[1] = biological target: Serine/threonine-protein kinase SBK1 (Homo sapiens) (UniProt Q52WX2)
[2] = biological target: Uncharacterized serine/threonine-protein kinase SBK3 (Homo sapiens) (UniProt P0C264)
[3] = biological target: Calcium/calmodulin-dependent protein kinase type 1G (Homo sapiens) (UniProt Q96NX5)
[4] = biological target: Tyrosine-protein kinase Srms (Homo sapiens) (UniProt Q9H3Y6)
[5] = biological target: Serine/threonine-protein kinase PAK 1 (Homo sapiens) (UniProt Q13153)
[6] = biological target: SRSF protein kinase 3 (Homo sapiens) (UniProt Q9UPE1)
[7] = biological target: Ribosomal protein S6 kinase alpha-6 (Homo sapiens) (UniProt Q9UK32)
[8] = biological target: Mitogen-activated protein kinase kinase kinase 6 (Homo sapiens) (UniProt O95382)
[9] = biological target: Membrane-associated tyrosine- and threonine-specific cdc2-inhibitory kinase (Homo sapiens) (UniProt Q99640)
[10] = biological target: Serine/threonine-protein kinase PLK1 (Homo sapiens) (UniProt P53350)
[11] = biological target: Fibroblast growth factor receptor 4 (Homo sapiens) (UniProt P22455)
[12] = biological target: Alpha-2C adrenergic receptor (Homo sapiens) (UniProt P18825); conditions: Compound concentration 10.0 uM
[13] = biological target: TRAF2 and NCK-interacting protein kinase (Homo sapiens) (UniProt Q9UKE5)
[14] = test system: Epidermal growth factor receptor (Homo sapiens), P00533 [UNDEFINED MUTATION]
[15] = test system: Mast/stem cell growth factor receptor Kit (Homo sapiens), P10721 [A829P]
[16] = biological target: Serine/threonine-protein kinase 4 (Homo sapiens) (UniProt Q13043)
[17] = biological target: Beta-3 adrenergic receptor (Homo sapiens) (UniProt P13945); conditions: Compound concentration 10.0 uM
[18] = biological target: Dual specificity protein kinase CLK4 (Homo sapiens) (UniProt Q9HAZ1)
[19] = biological target: Alpha-1A adrenergic receptor (Homo sapiens) (UniProt P35348); conditions: Compound concentration 10.0 uM
[20] = biological target: Cyclin-dependent kinase 18 (Homo sapiens) (UniProt Q07002)
[21] = biological target: Atypical kinase COQ8B, mitochondrial (Homo sapiens) (UniProt Q96D53)
[22] = test system: Tyrosine-protein kinase ABL1 (Homo sapiens), P00519 [F317I]
[23] = biological target: Insulin-like growth factor 1 receptor (Homo sapiens) (UniProt P08069)
[24] = biological target: Protein-tyrosine kinase 2-beta (Homo sapiens, UniProt Q14289)
[25] = biological target: Serine/threonine-protein kinase 26 (Homo sapiens) (UniProt Q9P289)
[26] = biological target: 5-hydroxytryptamine receptor 6 (Homo sapiens) (UniProt P50406); conditions: Compound concentration 10.0 uM
[27] = biological target: Serine/threonine-protein kinase pim-1 (Homo sapiens) (UniProt P11309)
[28] = biological target: Serine/threonine-protein kinase Sgk2 (Homo sapiens) (UniProt Q9HBY8)
[29] = biological target: Cyclin-dependent kinase-like 5 (Homo sapiens) (UniProt O76039)
[30] = biological target: Fibroblast growth factor receptor 2 (Homo sapiens) (UniProt P21802)
[31] = biological target: Muscarinic acetylcholine receptor M5 (Homo sapiens) (UniProt P08912); conditions: Compound concentration 10.0 uM
[32] = biological target: Vascular endothelial growth factor receptor 1 (Homo sapiens, UniProt P17948)
[33] = biological target: Myosin-IIIa (Homo sapiens) (UniProt Q8NEV4)
[34] = biological target: Serine/threonine-protein kinase MRCK gamma (Homo sapiens) (UniProt Q6DT37)
[35] = biological target: Phosphatidylinositol 4-kinase beta (Homo sapiens) (UniProt Q9UBF8)
[36] = biological target: Beta-adrenergic receptor kinase 1 (Homo sapiens) (UniProt P25098)
[37] = test system: Phosphatidylinositol 4,5-bisphosphate 3-kinase catalytic subunit alpha isoform (Homo sapiens), P42336 [H1047Y]
[38] = biological target: Wee1-like protein kinase 2 (Homo sapiens) (UniProt P0C1S8)
[39] = biological target: T1, Serine/threonine-protein kinase 3 (Homo sapiens) (UniProt Q13188)
T1 sequence (whole entry): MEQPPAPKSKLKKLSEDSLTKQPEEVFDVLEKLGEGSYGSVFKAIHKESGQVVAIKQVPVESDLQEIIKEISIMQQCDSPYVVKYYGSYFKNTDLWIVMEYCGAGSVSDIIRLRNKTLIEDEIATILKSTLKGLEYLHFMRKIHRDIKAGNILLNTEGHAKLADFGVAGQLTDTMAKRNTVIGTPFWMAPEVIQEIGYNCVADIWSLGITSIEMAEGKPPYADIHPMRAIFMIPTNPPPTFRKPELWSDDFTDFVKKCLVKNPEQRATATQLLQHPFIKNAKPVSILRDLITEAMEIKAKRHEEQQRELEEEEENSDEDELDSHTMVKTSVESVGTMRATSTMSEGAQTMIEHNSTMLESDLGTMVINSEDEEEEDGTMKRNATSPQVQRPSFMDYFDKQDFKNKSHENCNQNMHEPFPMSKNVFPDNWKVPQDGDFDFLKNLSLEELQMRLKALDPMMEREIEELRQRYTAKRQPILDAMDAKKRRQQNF

[40] = Compound concentration 100.0 nM
[41] = Compound concentration 1000.0 nM

Chain of Mitogen-activated protein kinase kinase kinase 6 (Homo sapiens) (O95382 whole entry): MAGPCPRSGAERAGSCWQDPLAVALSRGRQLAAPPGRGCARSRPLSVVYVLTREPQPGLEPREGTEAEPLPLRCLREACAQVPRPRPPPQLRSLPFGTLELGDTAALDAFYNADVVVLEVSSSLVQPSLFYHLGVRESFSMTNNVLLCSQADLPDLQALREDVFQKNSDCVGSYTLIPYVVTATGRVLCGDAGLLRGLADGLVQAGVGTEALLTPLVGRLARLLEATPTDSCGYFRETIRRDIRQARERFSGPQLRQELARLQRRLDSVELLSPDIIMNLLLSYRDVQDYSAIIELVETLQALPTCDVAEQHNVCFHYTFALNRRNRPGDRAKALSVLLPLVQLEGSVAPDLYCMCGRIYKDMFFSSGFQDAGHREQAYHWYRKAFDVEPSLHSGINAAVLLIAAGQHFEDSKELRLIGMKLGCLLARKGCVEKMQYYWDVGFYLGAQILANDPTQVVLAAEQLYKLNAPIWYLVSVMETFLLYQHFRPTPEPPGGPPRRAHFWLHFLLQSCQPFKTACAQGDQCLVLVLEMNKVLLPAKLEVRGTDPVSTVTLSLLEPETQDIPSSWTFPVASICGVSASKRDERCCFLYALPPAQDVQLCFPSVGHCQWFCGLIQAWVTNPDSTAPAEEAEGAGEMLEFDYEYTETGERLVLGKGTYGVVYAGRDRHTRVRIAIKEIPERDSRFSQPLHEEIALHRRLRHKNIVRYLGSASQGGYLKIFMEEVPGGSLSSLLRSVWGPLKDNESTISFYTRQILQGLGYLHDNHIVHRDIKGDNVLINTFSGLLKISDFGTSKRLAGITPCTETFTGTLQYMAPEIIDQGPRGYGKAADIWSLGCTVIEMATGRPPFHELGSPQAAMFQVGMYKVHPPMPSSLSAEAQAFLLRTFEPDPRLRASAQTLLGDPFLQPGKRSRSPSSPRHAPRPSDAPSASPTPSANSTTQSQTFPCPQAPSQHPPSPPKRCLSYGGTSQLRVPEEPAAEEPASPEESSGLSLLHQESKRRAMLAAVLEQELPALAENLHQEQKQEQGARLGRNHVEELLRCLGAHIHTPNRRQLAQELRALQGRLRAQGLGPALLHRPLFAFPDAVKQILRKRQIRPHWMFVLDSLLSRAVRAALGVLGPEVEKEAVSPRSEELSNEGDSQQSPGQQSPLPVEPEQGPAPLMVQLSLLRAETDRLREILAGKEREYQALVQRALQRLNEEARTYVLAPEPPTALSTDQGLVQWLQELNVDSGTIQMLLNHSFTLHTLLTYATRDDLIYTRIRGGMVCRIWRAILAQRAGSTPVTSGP
Chain of Fibroblast growth factor receptor 2 (Homo sapiens) (P21802 22-821 limits assumed): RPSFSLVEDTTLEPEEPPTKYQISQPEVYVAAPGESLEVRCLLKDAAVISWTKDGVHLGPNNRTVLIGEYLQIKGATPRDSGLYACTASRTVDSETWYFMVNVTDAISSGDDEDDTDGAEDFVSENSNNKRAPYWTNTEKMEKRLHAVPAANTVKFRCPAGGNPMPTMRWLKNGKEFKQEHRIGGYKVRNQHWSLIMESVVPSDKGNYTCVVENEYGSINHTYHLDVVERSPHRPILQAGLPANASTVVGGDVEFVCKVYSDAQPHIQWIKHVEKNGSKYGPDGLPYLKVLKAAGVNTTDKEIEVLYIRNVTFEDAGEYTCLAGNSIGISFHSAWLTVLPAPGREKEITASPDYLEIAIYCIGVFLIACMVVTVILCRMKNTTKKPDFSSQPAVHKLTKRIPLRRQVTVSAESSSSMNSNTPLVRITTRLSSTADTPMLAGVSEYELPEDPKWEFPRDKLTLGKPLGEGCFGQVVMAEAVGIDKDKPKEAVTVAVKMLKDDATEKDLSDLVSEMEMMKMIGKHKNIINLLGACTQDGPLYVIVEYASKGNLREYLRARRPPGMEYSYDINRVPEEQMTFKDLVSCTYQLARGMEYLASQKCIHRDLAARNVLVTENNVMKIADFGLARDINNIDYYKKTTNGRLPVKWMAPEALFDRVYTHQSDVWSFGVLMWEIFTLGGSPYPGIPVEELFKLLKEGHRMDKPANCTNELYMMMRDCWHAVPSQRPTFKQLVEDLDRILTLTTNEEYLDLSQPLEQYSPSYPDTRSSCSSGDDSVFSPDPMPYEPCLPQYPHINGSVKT
Chain of Alpha-1A adrenergic receptor (Homo sapiens) (P35348 whole entry): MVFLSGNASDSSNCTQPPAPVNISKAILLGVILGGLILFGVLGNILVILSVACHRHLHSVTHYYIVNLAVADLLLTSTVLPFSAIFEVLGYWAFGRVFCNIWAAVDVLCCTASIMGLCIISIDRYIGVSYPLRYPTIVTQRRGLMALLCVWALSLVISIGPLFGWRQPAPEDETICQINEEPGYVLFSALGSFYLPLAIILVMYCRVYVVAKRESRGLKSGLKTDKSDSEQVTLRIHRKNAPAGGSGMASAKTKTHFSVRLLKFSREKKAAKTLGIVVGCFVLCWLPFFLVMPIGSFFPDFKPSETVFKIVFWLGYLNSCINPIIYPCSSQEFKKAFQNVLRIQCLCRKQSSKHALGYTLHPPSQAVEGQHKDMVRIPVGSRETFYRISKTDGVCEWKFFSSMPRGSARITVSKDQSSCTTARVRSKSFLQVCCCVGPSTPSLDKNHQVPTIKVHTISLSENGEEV
Chain of Mast/stem cell growth factor receptor Kit (Homo sapiens), P10721 [A829P] (P10721 whole entry A829P): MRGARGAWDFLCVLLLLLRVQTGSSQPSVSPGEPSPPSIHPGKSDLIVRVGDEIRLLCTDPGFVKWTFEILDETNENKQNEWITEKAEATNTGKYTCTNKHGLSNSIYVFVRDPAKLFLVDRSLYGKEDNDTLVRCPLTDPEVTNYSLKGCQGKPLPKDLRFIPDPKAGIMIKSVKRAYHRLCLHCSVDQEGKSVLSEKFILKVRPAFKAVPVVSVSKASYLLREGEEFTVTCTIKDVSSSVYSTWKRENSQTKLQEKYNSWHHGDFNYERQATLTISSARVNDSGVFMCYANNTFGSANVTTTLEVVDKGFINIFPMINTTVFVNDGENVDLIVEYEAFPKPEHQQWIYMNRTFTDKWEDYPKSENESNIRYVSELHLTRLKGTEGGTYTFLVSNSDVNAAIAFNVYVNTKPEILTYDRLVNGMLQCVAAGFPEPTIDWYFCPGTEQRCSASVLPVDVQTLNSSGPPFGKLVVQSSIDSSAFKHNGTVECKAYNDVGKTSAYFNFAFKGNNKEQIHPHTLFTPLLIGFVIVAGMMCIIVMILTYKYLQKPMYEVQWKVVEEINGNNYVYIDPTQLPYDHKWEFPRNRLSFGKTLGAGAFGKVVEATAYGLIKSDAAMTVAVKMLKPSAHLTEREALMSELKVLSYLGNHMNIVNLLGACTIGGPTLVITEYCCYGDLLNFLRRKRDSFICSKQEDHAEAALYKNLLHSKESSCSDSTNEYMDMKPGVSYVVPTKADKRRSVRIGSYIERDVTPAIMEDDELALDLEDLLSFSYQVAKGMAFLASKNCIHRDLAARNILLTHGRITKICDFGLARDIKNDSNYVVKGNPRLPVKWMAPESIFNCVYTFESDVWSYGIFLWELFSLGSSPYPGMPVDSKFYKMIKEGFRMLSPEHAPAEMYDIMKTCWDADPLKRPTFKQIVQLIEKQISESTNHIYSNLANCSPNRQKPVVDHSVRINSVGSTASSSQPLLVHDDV
Chain of Alpha-2C adrenergic receptor (Homo sapiens) (P18825 whole entry): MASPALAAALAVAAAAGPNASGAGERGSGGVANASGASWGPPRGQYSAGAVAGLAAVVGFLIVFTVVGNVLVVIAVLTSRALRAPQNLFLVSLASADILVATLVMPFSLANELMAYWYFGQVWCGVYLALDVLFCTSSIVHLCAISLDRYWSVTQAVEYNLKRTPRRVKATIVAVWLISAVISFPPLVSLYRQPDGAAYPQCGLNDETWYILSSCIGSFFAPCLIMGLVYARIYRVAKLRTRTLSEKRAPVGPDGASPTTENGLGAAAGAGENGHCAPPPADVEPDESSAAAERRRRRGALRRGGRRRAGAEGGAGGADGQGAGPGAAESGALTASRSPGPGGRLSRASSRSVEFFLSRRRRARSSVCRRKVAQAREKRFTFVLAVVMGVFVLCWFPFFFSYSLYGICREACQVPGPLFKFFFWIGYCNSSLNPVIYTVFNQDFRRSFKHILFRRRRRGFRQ
Chain of Uncharacterized serine/threonine-protein kinase SBK3 (Homo sapiens) (P0C264 whole entry): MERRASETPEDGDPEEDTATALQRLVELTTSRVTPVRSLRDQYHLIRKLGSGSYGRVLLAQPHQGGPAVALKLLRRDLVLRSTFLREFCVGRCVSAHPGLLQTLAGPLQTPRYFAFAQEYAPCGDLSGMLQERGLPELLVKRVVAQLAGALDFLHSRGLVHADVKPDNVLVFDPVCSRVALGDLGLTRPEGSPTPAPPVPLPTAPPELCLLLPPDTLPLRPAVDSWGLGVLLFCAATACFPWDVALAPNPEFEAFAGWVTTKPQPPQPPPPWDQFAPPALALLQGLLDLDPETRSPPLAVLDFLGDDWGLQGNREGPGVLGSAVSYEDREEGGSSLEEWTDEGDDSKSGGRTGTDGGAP
Chain of SRSF protein kinase 3 (Homo sapiens) (Q9UPE1 whole entry): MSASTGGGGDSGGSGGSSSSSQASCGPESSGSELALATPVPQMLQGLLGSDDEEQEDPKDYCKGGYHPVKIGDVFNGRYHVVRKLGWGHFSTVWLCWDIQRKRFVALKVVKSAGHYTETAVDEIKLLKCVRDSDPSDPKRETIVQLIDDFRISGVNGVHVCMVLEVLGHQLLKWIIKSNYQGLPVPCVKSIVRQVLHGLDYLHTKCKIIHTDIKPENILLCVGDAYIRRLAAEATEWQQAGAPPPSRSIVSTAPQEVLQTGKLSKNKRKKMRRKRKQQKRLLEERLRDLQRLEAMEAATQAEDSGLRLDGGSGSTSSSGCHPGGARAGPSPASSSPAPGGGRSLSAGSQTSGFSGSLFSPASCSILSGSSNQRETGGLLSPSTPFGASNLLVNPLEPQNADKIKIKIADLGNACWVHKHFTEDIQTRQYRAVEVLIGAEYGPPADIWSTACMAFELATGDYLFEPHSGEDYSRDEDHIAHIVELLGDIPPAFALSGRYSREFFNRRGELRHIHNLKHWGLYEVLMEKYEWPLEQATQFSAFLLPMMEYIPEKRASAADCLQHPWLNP

CNC(=O)c1ccc(Nc2ncc(C(F)(F)F)c(NCc3nccnc3N(C)S(C)(=O)=O)n2)cc1 [DEFACTINIB]
inactive: residual activity [1, 40] 67% | residual activity [2, 40] 100% | residual activity [3, 40] 89% | residual activity [4, 40] 96% | residual activity [5, 40] 75% | residual activity [6, 40] 100% | residual activity [8, 40] 90% | residual activity [9, 40] 94% | residual activity [10, 40] 84% | residual activity [11, 40] 95% | inhibition [12] 4.73% | residual activity [13, 40] 65% | residual activity [14, 40] 97% | residual activity [15, 40] 85% | residual activity [16, 40] 97% | inhibition [17] 4.63% | inhibition [19] -4.42% | residual activity [20, 40] 68% | residual activity [21, 40] 88% | residual activity [22, 40] 100% | residual activity [23, 40] 84% | residual activity [25, 40] 95% | inhibition [26] -8.99% | residual activity [27, 40] 93% | residual activity [28, 40] 96% | residual activity [29, 40] 100% | residual activity [30, 40] 100% | inhibition [31] 5.41% | residual activity [32, 40] 63% | residual activity [33, 40] 100% | residual activity [34, 40] 80% | residual activity [35, 40] 99% | residual activity [36, 40] 89% | residual activity [37, 40] 100% | residual activity [38, 40] 97% | residual activity [39, 40] 68%
active: residual activity [7, 40] 49% | residual activity [18, 40] 25% | residual activity [24, 40] 8.3%

CN(c1ccnc(CNc2nc(Nc3ccc4c(c3)CC(=O)N4)ncc2C(F)(F)F)n1)S(C)(=O)=O [PF-00911705]
inactive: residual activity [2, 41] 100% | residual activity [3, 41] 95% | residual activity [4, 41] 62% | residual activity [5, 41] 73% | residual activity [7, 41] 79% | residual activity [8, 41] 73% | residual activity [9, 41] 100% | residual activity [11, 41] 83% | inhibition [12] 4.91% | residual activity [13, 41] 77% | residual activity [14, 41] 75% | residual activity [16, 41] 100% | inhibition [17] 1.64% | inhibition [19] -3.55% | residual activity [20, 41] 100% | residual activity [21, 41] 84% | residual activity [22, 41] 79% | residual activity [23, 41] 100% | residual activity [24, 41] 59% | inhibition [26] 11.1% | residual activity [27, 41] 79% | residual activity [28, 41] 75% | residual activity [29, 41] 87% | residual activity [30, 41] 59% | inhibition [31] -6.47% | residual activity [32, 41] 69% | residual activity [33, 41] 100% | residual activity [34, 41] 93% | residual activity [35, 41] 76% | residual activity [37, 41] 85%
active: residual activity [1, 41] 34% | residual activity [6, 41] 11% | residual activity [10, 41] 7.6% | residual activity [15, 41] 46% | residual activity [18, 41] 1.4% | residual activity [25, 41] 46% | residual activity [36, 41] 31% | residual activity [38, 41] 28% | residual activity [39, 41] 46%
